# Data taken from paper PMC9530242, “Cryo-EM structure-based selection of computed ligand poses enables design of MTA-synergic PRMT5 inhibitors of better potency” (Communications Biology, 2022).
# Values joined by “and” are separate entries in the source; they are usually repeats but may differ in a detail not shown here. Identical values can stand only once. Like-named read-outs stand apart in the source and are kept apart here.
# Legend:
# PRMT5:MEP50 [1] = target: T1, PRMT5:MEP50 (Homo sapiens, UniProt O14744); assay: MTase-Glo methyltransferase enzymatic inhibition assay (methylation of H4 peptide); assay type: biochemical; conditions: 100 nM PRMT5:MEP50, 10 µM SAM, 2 µM histone H4 peptide (1-21), n = 3
# T1 construct: full-length human PRMT5 (residues 1–637, NP_006100); FLAG; made in house; host or cells: Sf9 insect cells (Bac-to-Bac baculovirus)
# T1 sequence (O14744 whole entry, the tested form may be a part): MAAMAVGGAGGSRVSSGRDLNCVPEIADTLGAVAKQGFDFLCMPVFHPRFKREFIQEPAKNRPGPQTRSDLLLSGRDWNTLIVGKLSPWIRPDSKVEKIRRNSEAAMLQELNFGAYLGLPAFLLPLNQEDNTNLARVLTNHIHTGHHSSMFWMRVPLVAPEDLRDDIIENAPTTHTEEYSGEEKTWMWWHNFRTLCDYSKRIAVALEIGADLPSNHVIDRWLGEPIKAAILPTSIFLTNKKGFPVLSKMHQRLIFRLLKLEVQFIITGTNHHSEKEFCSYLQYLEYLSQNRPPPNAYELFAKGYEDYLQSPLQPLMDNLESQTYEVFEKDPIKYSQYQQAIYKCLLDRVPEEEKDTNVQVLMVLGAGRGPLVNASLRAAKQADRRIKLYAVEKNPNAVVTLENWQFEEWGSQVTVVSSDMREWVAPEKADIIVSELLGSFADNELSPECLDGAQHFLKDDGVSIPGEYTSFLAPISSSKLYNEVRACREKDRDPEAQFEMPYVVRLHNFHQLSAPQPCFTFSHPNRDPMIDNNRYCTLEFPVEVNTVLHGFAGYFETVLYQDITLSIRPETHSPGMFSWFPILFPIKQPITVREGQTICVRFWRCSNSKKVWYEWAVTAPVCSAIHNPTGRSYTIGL
# T1 sequence (Q9BQA1 2-342 partner limits assumed): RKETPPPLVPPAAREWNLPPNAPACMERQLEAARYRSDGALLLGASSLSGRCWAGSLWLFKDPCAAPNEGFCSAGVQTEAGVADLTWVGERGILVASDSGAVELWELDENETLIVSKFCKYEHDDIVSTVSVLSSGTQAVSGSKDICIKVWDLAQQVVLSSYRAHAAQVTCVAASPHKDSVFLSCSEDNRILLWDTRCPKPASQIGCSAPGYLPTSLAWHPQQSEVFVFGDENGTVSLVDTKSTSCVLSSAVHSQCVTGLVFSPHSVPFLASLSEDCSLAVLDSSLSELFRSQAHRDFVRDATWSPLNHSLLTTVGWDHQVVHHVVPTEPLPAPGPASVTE
# Protocol: Recombinant PRMT5:MEP50 was purified to biochemical homogeneity from sf9 cells (Supplementary Fig. 1). Inhibition of PRMT5 activity (methylation of H4 peptide) was monitored by measuring luminescence from a MTase-Glow detection reagent.
# PRMT5:MEP50 protein complex was prepared as described by Antonysamy, S., et al.[39]. Briefly, full-length human PRMT5 (residues 1–637, NP_006100) and human MEP50 (residues 2–342, NP_077007) were co-expressed in Sf9 cells using a Bac-to-Bac expression system (Invitrogen). The cells were harvested and lysed. […]
# 11-2 F was serially diluted by 5-fold from 500 µM to 6.4 nM in DMSO then added into reaction buffer (30 mM Tris-HCl at pH 7.4, 500 mM NaCl, 2 mM MgCl2, 2 mM TCEP, 0.1% (wt/vol) BSA and 0.01% (vol/vol) Tween-20) with final DMSO concentration at 5% (vol/vol). […] After shaking for 2 min and incubation at room temperature for 30 min, 20 µl room temperature MTase-Glo Detection Solution was added and mixed well before incubation for another 30 min and luminescence recording. Luminescence was measured in a Synergy Neo2 HTS multimode microplate reader (BioTek). […] Data are analyzed in GraphPad Prism 8. For inhibitor studies, IC50 was determined by nonlinear regression (curve fitting) using the equation for the sigmoidal dose response (variable slope).
# PRMT5:MEP50 [2] = target: T1, PRMT5:MEP50; assay: Surface plasmon resonance (SPR) binding study
# Protocol: PRMT5:MEP50 protein complex was prepared as described by Antonysamy, S., et al.[39]. Briefly, full-length human PRMT5 (residues 1–637, NP_006100) and human MEP50 (residues 2–342, NP_077007) were co-expressed in Sf9 cells using a Bac-to-Bac expression system (Invitrogen). The cells were harvested and lysed. After removal of cell debris, supernatants were collected for FLAG-affinity chromatography (Sigma; A2220) and fractionated by size exclusion chromatography in a 10/300 Superose 6 column (GE Life Sciences). The purified PRMT5:MEP50 complex was characterized by SDS-PAGE and sedimentation velocity analytical ultracentrifugation (SV-AUC) using a ProteomeLab™XL-I system (Beckman Coulter; Supplementary Fig. 1). Protein samples were concentrated to 12 mg/mL in a buffer containing 10 mM HEPES at pH 7.5, 150 mM NaCl, 10% (vol/vol) glycerol and 2.0 mM DTT and were stored at −80 °C until the time of use.
# Binding affinity measurements were conducted in a Reichert2SPR instrument (Ametek) at 25 °C. PRMT5:MEP50 proteins were directly immobilized onto a 500,000 Da carboxymethyl dextran sensor chip at pH 5.5 using a standard amine-coupling approach. The small molecule analyte (11-2 F as an example) was injected at a flow rate of 30 μL/min of different concentrations in the running buffer (10 mM HEPES pH 7.4, 150 mM NaCl, 3.0 mM EDTA, 0.005% v/v Tween-20, and 5% DMSO). The association and dissociation times were set to be 1 min. […] The dissociation time for 11-2 F in MTA-containing running buffer was elongated to be 3 min to achieve complete dissociation. Sensorogram data were processed using the TraceDrawer software package to calculate the equilibrium dissociation constant KD, the association rate constant kon and the dissociation rate constant koff.
# [3] = system: SDMA from PRMT5 activity in MDA-MB-231 cells; assay: Cell-based assay of SDMA by western blotting (MTA-synergy in cultured cells); conditions: Homo sapiens, MDA-MB-231, 96 h, read-out: IC50, inhibition of SDMA production
# Text: The above analysis highlighted three principles that should be considered to enhance PRMT5 inhibition by 11-2F analogs. (1) It is important to retain the quinoline ring backbone to maintain the positive cooperativity with MTA. (2) The pi-stacking interactions of Trp579 and Phe327 with the quinoline ring may be enhanced to keep the inhibitor properly oriented, which could be achieved by introducing small groups (-F, or -CH3, or -NH3^+) to the ring. (3) The cyclo-alkylated indole ring of 11-2F is relatively flexible and may be stabilized by introducing H-bonds or electrostatic interactions with the binding pocket, especially with the residues on the flexible loop. […] Three 11-2F analogs predicted to have higher potency introduce more interactions with the binding pockets (Table 2; Supplementary Figs. 6–8, and Supplementary Tables 5–7). […] In the binding pocket, the 2,4-di-NH2-quinazoline of 11-9 F forms H-bonds with E444, E435, and S439, and its aromatic ring is sandwiched between the sidechains of Phe327 and Trp579. […]
# MDA-MB-231 cells were seeded at 1.0 × 10^6 cells/dish and allowed to adhere overnight. […] The protein concentrations were determined using the BCA Protein Assay kit (Pierce #23227). […] After three washes with the TBST buffer, the membrane was analyzed using ECL Western blotting detection reagents (Pierce #34096) and imaged in a ChemiDoc MP imaging system (Bio-Rad). […]
"IC50 (PRMT5:MEP50 [1]; read-out: IC50, inhibition of PRMT5:MEP50 enzyme activity) [nM]","IC50 (PRMT5:MEP50 [1]; read-out: IC50, inhibition of PRMT5 enzyme activity) [nM]",apparent positive coupling coefficient between 11-2F and MTA (PRMT5:MEP50 [2]; KD without MTA vs with 25 μM MTA),Kd (PRMT5:MEP50 [2]; PRMT5:MEP50 saturated with 25 μM MTA),Kd (PRMT5:MEP50 [2]; PRMT5:MEP50 saturated with 25 μM SAH),Kd (PRMT5:MEP50 [2]; PRMT5:MEP50 saturated with 25 μM SAM),koff (PRMT5:MEP50 [2]; saturated with 25 μM MTA) [s⁻¹],kon (PRMT5:MEP50 [2]; saturated with 25 μM MTA) [M⁻¹ s⁻¹],koff (PRMT5:MEP50 [2]; saturated with 25 μM SAH) [s⁻¹],kon (PRMT5:MEP50 [2]; saturated with 25 μM SAH) [M⁻¹ s⁻¹],koff (PRMT5:MEP50 [2]; saturated with 25 μM SAM) [s⁻¹],kon (PRMT5:MEP50 [2]; saturated with 25 μM SAM) [M⁻¹ s⁻¹],Kd (PRMT5:MEP50 [2]; without MTA (no cofactor)) [nM],koff (PRMT5:MEP50 [2]; without MTA (no cofactor)) [s⁻¹],kon (PRMT5:MEP50 [2]; without MTA (no cofactor)) [M⁻¹ s⁻¹],IC50 ([3]; 0 μM additional MTA (black trace)) [nM],IC50 ([3]; 5.0 μM MTA (red trace)) [nM],SMILES
~730,730 ± 200,~ 166,~82 nM and 82.1 nM,1600 nM and 1630 nM,380 nM and 375 nM,0.0202,246000,0.112,75700,0.019,50700,~13600,0.0844,6190,–,–,"Nc1ccc2ccc(CNC(=O)c3ccc4c(c3)c3c(n4CCO)CCCC3)cc2n1 [11-2F, N-[(2′-aminoquinoline)-7′-methyl]-[9-(2-hydroxyethyl)-5,6,7,8-tetrahydro-carbazole]-3-carboxamide]"
–,–,–,–,–,–,–,–,–,–,–,–,–,–,–,32400,2400,"CCn1c2c(c3cc(C(=O)NCc4ccc5c(N)nc(N)nc5c4)ccc31)CCCC2 [11-9F, N-[(2′,4′-diaminoquinazoline)-7′-methyl]-[9-ethyl-5,6,7,8-tetrahydro-carbazole]-3-carboxamide]"
